In patent publication US20080009025A1, “PROTEIN KINASE REGULATION” (priority 1999, published 2008):
Where a SMILES comes first, the peptide text is derived from it.

Tests used:
Test in all cases: Surface plasmon resonance binding of PDK1 to PIF / immobilised PIFtide
PDK1 [1] = biological target: T1, PDK1 (Homo sapiens, UniProt O15530, K115A); details: immobilised biotinylated peptide; PDK1 K115A
T1 construct: Full length PDK1 (residues 1-556); made in house; host or cells: 293 cells
T1 sequence (O15530 1-556 K115A): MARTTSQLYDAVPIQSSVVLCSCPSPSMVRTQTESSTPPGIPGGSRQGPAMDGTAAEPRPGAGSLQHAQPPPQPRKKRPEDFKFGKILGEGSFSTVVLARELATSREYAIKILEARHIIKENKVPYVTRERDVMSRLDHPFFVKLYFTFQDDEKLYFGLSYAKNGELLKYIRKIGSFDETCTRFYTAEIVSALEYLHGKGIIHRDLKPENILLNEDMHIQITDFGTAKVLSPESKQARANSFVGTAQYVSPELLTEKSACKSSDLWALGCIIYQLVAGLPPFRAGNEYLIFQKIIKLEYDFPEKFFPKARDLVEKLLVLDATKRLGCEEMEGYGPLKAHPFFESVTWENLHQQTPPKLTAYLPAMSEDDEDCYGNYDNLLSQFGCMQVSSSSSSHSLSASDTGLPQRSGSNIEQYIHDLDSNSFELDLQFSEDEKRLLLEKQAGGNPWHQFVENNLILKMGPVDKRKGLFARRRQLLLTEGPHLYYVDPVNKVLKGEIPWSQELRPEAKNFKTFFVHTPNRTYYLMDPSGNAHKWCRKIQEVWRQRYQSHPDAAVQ
Description: (§1) It is preferred that the interaction can be detected using a surface plasmon resonance method, as described in Example 1 or 2 and in Balendran et al (1999), supra and GB9906245.7, supra. The interacting polypeptide may be immobilised on the test surface, for example it can be coupled through amino groups to a SensorChip CM5™, according to the manufacturer's instructions, or a biotinylated polypeptide can be bound to an avidin coated SensorChip SA. The protein kinase (at concentrations between, for example 0 and […], for example 2 μM) is then injected over the surface and steady state binding determined in each case. From these measurements a Kd can be determined. […] Alternatively, a Kd can be determined for a polypeptide in competition with the immobilised polypeptide. The protein kinase (for example at a concentration of 0.5 μM) is mixed with free polypeptide (for example, at concentrations between 0 and 3 μM) and the mixture injected over the immobilised polypeptides. The steady state binding is determined in each case, from which the Kd of the interaction can be determined using the […] relationship. Alternatively, the interaction may be expressed in terms of an observed response or relative observed responses, measured in terms of mass of protein bound to the surface, as described in Example 2. For example, the polypeptide may be immobilised by amino coupling to a SensorChip CM5 and each protein kinase (for example different mutated protein kinases, as discussed below) for example at a concentration of 1.0 μM, injected over the immobilised polypeptide. Alternatively, the polypeptide may be immobilised on a SA SensorChip and each protein kinase, for example at a concentration of 40 nM injected over the immobilised polypeptide. The steady state response for each protein kinase is determined, for example expressed in Response Units (RU). 1000 RU corresponds to 1 ng/mm^2 of protein bound to the surface. A response of less than 10 RU may indicate that no interaction has taken place. A response of at least 10 RU may indicate that the immobilised and injected molecules interact with each other.
(§2) FIG. 9. Effect of mutation of conserved residues in the PIF-binding pocket of PDK1 on the ability to interact with PIF. 293 cells were transiently transfected with DNA constructs expressing GST-PIF and either wild type Myc-PDK1 or the indicated mutants of PDK1. 36 h post transfection the cells were lysed and GST-PIF purified by affinity chromatography on glutathione-Sepharose beads. 2 μg of each protein was electrophoresed on a 10% SDS/polyacrylamide gel and either stained with Coomassie blue (A and E) or immunoblotted using an anti Myc antibody to detect Myc-PDK1 (B and F). To establish that the wild type PDK1 and mutant proteins were expressed at a similar level, 10 μg of total cell lysate was electrophoresed on a 10% SDS/polyacrylamide gel and immunoblotted using anti-Myc antibodies (C and G). Duplicates of each condition are shown. Similar results were obtained in 3 to 5 separate experiments. (D) Surface Plasmon Resonance measurements were carried out in a BiaCore instrument as described in the Methods to measure the interaction of wild type and mutant GST-PDK1 preparations with the 24 residue synthetic peptide whose sequence encompasses the PDK1 binding site on PIF termed PIFtide [24: Example 2]. […]
(§3) Binding was analysed directly by surface plasmon resonance in an upgraded Bia-Lite™ system. […]

PDK1 [2] = tested on: PDK1; set-up: species or system human
Description: as §1, §2, §3

PDK1 [3] = biological target: T2, PDK1 (Homo sapiens, UniProt O15530); details: His-tagged PDK1
T2 construct: Full length PDK1 (residues 1-556); made in house; host or cells: 293 cells
T2 sequence (O15530 52-556): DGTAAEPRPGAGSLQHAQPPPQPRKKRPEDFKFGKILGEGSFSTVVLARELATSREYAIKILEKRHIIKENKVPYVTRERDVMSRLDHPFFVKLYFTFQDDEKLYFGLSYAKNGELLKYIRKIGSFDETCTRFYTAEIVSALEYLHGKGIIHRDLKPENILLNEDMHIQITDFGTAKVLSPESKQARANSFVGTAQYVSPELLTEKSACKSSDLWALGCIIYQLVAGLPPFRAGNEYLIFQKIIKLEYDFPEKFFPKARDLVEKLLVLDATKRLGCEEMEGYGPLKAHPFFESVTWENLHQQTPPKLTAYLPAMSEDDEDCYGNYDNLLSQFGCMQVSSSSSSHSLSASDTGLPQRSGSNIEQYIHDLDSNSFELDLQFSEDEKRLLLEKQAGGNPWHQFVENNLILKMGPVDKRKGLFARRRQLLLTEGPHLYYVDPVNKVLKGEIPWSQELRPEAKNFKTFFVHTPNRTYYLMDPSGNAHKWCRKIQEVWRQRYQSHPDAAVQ
Description: as §1, §2, §3

estimated equilibrium dissociation constant of the association between GST-PIF and His-tagged PDK1 (PDK1 [3])	Molecule	interaction with K115A mutant of PDK1 (PDK1 [1])	decreased affinity of PDK1[K115A], PDK1[I119A], PDK1[Q150A] and PDK1[L155A] for PIFtide (PDK1 [2]; PDK1 PIF pocket mutants vs wild type, unpublished data)	interaction with L155S, L155D and L155E mutants of PDK1 (PDK1 [2]; immobilised biotinylated peptide, PDK1 mutants L155S, L155D, L155E)	interaction with wild type GST-PDK1 (PDK1 [2]; immobilised biotinylated peptide, wild type GST-PDK1)
–	CC[C@H](C)[C@H](NC(=O)[C@H](Cc1ccc(O)cc1)NC(=O)[C@H](CC(=O)O)NC(=O)[C@H](Cc1ccccc1)NC(=O)[C@H](CC(=O)O)NC(=O)[C@H](CCCNC(=N)N)NC(=O)[C@H](Cc1ccccc1)NC(=O)[C@H](CCSC)NC(=O)[C@H](CCC(=O)O)NC(=O)[C@H](CCC(N)=O)NC(=O)[C@H](CCC(=O)O)NC(=O)[C@H](CCC(=O)O)NC(=O)[C@H](CCC(=O)O)NC(=O)[C@H](CO)NC(=O)[C@H](CC(C)C)NC(=O)[C@@H](NC(=O)[C@H](CCCNC(=N)N)NC(=O)[C@@H]1CCCN1C(=O)[C@H](CCC(=O)O)NC(=O)[C@@H](N)CCCNC(=N)N)[C@@H](C)CC)C(=O)N[C@@H](C)C(=O)N[C@@H](CC(=O)O)C(=O)N[C@@H](Cc1c[nH]c2ccccc12)C(=O)N[C@@H](CS)C(=O)O [PIFtide] (H-REPRILSEEEQEMFRDFDYIADWC-OH; N-terminus and C-terminus assumed)	interacted weakly	~10 fold	no detectable affinity	high affinity interaction
600 nM	GST-PIF: glutathione S-transferase fused to the last 77 residues of PRK2 (PIF)	–	–	–	–
